Source: US20250188092A1, “RIFAMYCIN ANALOGS” (THE REGENTS OF THE UNIVERSITY OF MICHIGAN, priority 2021, published 2025)
Values after ≈ are worked out from the molar mass of the structure shown.

How the values were obtained:
[1] = tested on: M. tuberculosis transformed with luxABCDE; test: microbe, parasite or virus in culture; assay type: cell-based, Mycobacterium tuberculosis; conditions: for MBC: Mycobacterium tuberculosis, 168 h, ≥99% reduction in luminescence, read-out: MBC99 Day 7 (Lux Assay) MBC
[2] = tested on: non-replicating cultures of M. tuberculosis H37Rv transformed with lux ABCDE; test: microbe, parasite or virus in culture; assay type: cell-based, Mycobacterium tuberculosis; conditions: for MIC90: Mycobacterium tuberculosis, H37RV, ≥90% reduction in luminescence, read-out: MIC90 LORA; for MIC90 LORA/MABA: ratio of LORA MIC90 to MABA MIC90

Compound	MBC99 Day 7 (Lux Assay) MBC Rel to RMP [1]	MBC [1] [µM]	MIC90 LORA Rel to RMP [2]	MIC90 [2] [µM]	MIC90 LORA/MABA [2]
CO[C@H]1/C=C/O[C@@]2(C)Oc3c(C)c(O)c4c(=O)c(c5oc6cccc(OCc7cccc(CN8CCN(C(=O)CN9CCOCC9)CC8)c7)c6nc-5c4c3C2=O)NC(=O)/C(C)=C\C=C\[C@H](C)[C@H](O)[C@@H](C)[C@@H](O)[C@@H](C)[C@H](OC(C)=O)[C@@H]1C [Compound 11f, (7S,9E,11S,12R,13S,14R,15R,16R,17S,1S,19E,21Z)-2,15,17-Trihydroxy-11-methoxy-3,7,12,14,16,18,22-heptamethyl-32-{[3-({4-[2-(morpholin-4-yl)acetyl]piperazin-1-yl}methyl)phenyl]methoxy}-6,23,37-trioxo-8,27,38-trioxa-24,34-diazahexacyclo[23.11.1.1^4,7.0^5,36.0^26,35.0^28,33]octatriaconta-1(36)2,4,9,19,21,25,28,30,32,34-undecaen-13-yl acetate]	0.11	0.084	0.39	0.37	15
CO[C@H]1/C=C/O[C@@]2(C)Oc3c(C)c(O)c4c(=O)c(c5oc6cc(N7CCN(C(=O)c8ccncc8)CC7)cc(OCc7ccc(CN8CCOCC8)cc7)c6nc-5c4c3C2=O)NC(=O)/C(C)=C\C=C\[C@H](C)[C@H](O)[C@@H](C)[C@@H](O)[C@@H](C)[C@H](OC(C)=O)[C@@H]1C [Compound 17n, 7S,9E,11S,12R,13S,14R,15R,16R,17S,18S,19E,21Z)-2,15,17-trihydroxy-11-methoxy-3,7,12,14,16,18,22-heptamethyl-32-{[4-(morpholin-4-ylmethyl)phenyl]methoxy}-6,23,37-trioxo-30-{4-[(pyridin-4-yl)carbonyl]piperazin-1-yl}-8,27,38-trioxa-24,34-diazahexacyclo[23.11.1.1^4,7.0^5,36.0^26,35.0^28,33]octatriaconta-1,3,5(36)9,19,21,25,28,30,32,34-undecaen-13-yl acetate]	0.70	0.315	4.7	0.235	3.2
CO[C@H]1/C=C/O[C@@]2(C)Oc3c(C)c(O)c4c(=O)c(c5oc6cc(N7CCN(CC(=O)O)CC7)cc(C)c6nc-5c4c3C2=O)NC(=O)/C(C)=C\C=C\[C@H](C)[C@H](O)[C@@H](C)[C@@H](O)[C@@H](C)[C@H](OC(C)=O)[C@@H]1C [Compound 29h, 2-{4-[(7S,9E,11S,12R,13S,14R,15R,16R,17S,18S,19E,21Z)-13-(acetyloxy)-2,15,17-trihydroxy-11-methoxy-3,7,12,14,16,18,22,32-octamethyl-6,23,37-trioxo-8,27,38-trioxa-24,34-diazahexacyclo[23.11.1.1^4,7.0^5,36.0^26,35.0^28,33]octatriaconta-1,3,5(36)9,19,21,25,28,30,32,34-undecaen-30-yl]piperazin-1-yl}acetic acid]	–	> 0.1	5.0	0.133 (≈ 0.125 µg/mL)	7.2
CO[C@H]1/C=C/O[C@@]2(C)Oc3c(C)c(O)c4c(=O)c(c5oc6cc(N7CCN(C(=O)c8ccc9occc9c8)CC7)cc(OCc7ccc(CN8CCOCC8)cc7)c6nc-5c4c3C2=O)NC(=O)/C(C)=C\C=C\[C@H](C)[C@H](O)[C@@H](C)[C@@H](O)[C@@H](C)[C@H](OC(C)=O)[C@@H]1C [Compound 17s, (7S,9E,11S,12R,13S,14R,15R,16R,17S,18S,19E,21Z)-30-{4-[(1-benzofuran-5-yl)carbonyl]piperazin-1-yl}-2,15,17-trihydroxy-11-methoxy-3,7,12,14,16,18,22-heptamethyl-32-{[4-(morpholin-4-ylmethyl)phenyl]methoxy}-6,23,37-trioxo-8,27,38-trioxa-24,34-diazahexacyclo[23.11.1.1^4,7.0^5,36.0^26,35.0^28,33]octatriaconta-1,3,5(36)9,19,21,25,28,30,32,34-undecaen-13-yl acetate]	0.19	0.084	0.60	0.03	1.7
CO[C@H]1/C=C/O[C@@]2(C)Oc3c(C)c(O)c4c(=O)c(c5oc6cc(C)cc(N7CCN(C(=O)c8cccc(-n9ccnc9)c8)CC7)c6nc-5c4c3C2=O)NC(=O)/C(C)=C\C=C\[C@H](C)[C@H](O)[C@@H](C)[C@@H](O)[C@@H](C)[C@H](OC(C)=O)[C@@H]1C [Compound 30f, (7S,9E,11S,12R,13S,14R,15R,16R,17S,18S,19E,21Z)-2,15,17-Trihydroxy-32-{4-[3-(1H-imidazol-1-yl)benzoyl]piperazin-1-yl}-11-methoxy-3,7,12,14,16,18,22,30-octamethyl-6,23,37-trioxo-8,27,38-trioxa-24,34-diazahexacyclo[23.11.1.1^4,7.0^5,36.0^26,35.0^28,33]octatriaconta-1(36)2,4,9,19,21,25,28,30,32,34-undecaen-13-yl acetate]	0.24	0.11	0.57	0.117	2.7
CCC(=O)N1CCN(Cc2cccc(COc3cccc4oc5c6c(=O)c7c(O)c(C)c8c(c7c-5nc34)C(=O)[C@@](C)(O/C=C/[C@H](OC)[C@@H](C)[C@@H](OC(C)=O)[C@H](C)[C@H](O)[C@H](C)[C@@H](O)[C@@H](C)/C=C/C=C(/C)C(=O)N6)O8)c2)CC1 [Compound 11d, (7S,9E,11S,12R,13S,14R,15R,16R,17S,1S,19E,21Z)-2,15,17-Trihydroxy-11-methoxy-3,7,12,14,16,18,22-heptamethyl-6,23,37-trioxo-32-{(3-[(4-propanoylpiperazin-1-yl)methyl]phenyl}methoxy)-8,27,38-trioxa-24,34-diazahexacyclo[23.11.1.1^4,7.0^5,36.0^26,35.0^28,33]octatriaconta-1(36)2,4,9,19,21,25,28,30,32,34-undecaen-13-yl acetate]	0.08	0.058	–	< 0.1	–
CCC(=O)N1CCN(c2cc(C)c3nc4c5c6c7c(C)c(O)c5c(=O)c(c-4oc3c2)NC(=O)/C(C)=C\C=C\[C@H](C)[C@H](O)[C@@H](C)[C@@H](O)[C@@H](C)[C@H](OC(C)=O)[C@H](C)[C@@H](OC)/C=C/O[C@@](C)(O7)C6=O)CC1 [Compound 26e, (7S,9E,11S,12R,13S,14R,15R,16R,17S,18S,19E,21Z)-2,15,17-Trihydroxy-11-methoxy-3,7,12,14,16,18,22,32-octamethyl-6,23,37-trioxo-30-(4-propanoylpiperazin-1-yl)-8,27,38-trioxa-24,34-diazahexacyclo[23.11.1.1^4,7.0^5,36.0^26,35.0^28,33]octatriaconta-1(36)2,4,9,19,21,25,28,30,32,34-undecaen-13-yl acetate]	0.19	0.087	–	> 0.02	–
